Measured values taken from paper PMC5485063 (Chemmedchem, 2017).
≈ marks a conversion by molar mass, not a printed value.

How the values were obtained:
[1] = High‐throughput metabolic stability assay, pooled human liver microsomes; conditions: predicted hepatic metabolic (blood) clearance
rat hepatocytes = test: High‐throughput metabolic stability assay, freshly harvested rat hepatocytes; conditions: predicted hepatic metabolic (blood) clearance
[2] = logD by reversed‐phase HPLC; conditions: pH 7.5
A2780 cells = test: In vitro proliferation assay, cultivated A2780 cells; type: cell-based; conditions: Homo sapiens, A2780, read-out: IC50 A2780
Caco2 = test: Bidirectional Caco2 permeability assay, 24‐well format; conditions: for P app A→B: Caco2, apical to basolateral; for permeability in either direction (P app A→B and P app B→A): Caco2, incubation period 90 min, possibly precipitation and sticking to plastics
CDK9 = CDK9 (Homo sapiens, UniProt P50750); test: Biochemical in vitro kinase assay CDK9
Sequence of CDK9 (P50750 whole entry): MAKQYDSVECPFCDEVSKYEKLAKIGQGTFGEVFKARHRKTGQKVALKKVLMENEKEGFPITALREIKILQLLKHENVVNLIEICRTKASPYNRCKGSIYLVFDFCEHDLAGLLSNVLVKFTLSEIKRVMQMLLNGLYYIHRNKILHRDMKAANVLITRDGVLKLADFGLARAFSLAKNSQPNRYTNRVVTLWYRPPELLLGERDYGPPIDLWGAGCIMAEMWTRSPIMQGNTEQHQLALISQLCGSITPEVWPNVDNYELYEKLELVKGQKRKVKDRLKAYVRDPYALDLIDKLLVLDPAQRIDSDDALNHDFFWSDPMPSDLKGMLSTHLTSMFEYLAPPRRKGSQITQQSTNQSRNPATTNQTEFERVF
Sequence of CDK9 (O60563 whole entry partner): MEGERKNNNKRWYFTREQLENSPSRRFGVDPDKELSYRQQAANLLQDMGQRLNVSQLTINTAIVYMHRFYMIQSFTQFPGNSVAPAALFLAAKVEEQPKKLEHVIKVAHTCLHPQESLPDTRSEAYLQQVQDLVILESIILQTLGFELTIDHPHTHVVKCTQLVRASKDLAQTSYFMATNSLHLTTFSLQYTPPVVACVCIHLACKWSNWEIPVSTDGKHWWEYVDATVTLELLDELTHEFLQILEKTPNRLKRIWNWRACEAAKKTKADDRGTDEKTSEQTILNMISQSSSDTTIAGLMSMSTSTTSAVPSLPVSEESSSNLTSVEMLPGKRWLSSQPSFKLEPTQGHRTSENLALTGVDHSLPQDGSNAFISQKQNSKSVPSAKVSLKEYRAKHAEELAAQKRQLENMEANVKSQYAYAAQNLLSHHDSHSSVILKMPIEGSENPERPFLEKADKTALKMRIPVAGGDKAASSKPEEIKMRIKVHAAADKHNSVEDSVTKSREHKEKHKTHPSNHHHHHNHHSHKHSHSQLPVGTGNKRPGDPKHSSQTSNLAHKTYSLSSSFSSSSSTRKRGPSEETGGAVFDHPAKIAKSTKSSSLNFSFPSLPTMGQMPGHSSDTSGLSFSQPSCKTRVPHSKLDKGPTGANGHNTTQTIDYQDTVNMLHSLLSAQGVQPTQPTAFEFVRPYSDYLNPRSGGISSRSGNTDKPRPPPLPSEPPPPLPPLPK

[3] = Bidirectional Caco2 permeability assay, 24‐well format; conditions: human
CDK2 = CDK2 (Homo sapiens, UniProt P24941); test: Biochemical in vitro kinase assay CDK2
MOLM‐13 cells = test: In vitro proliferation assay, MOLM‐13 cells; type: cell-based; conditions: Homo sapiens, MOLM-13, read-out: IC50 MOLM‐13
CDK6/CycD3 = CDK6/CycD3 (Homo sapiens, UniProt Q00534); test: Biochemical assay at ProQinase, CDK6/CycD3
Sequence of CDK6/CycD3 (Q00534 whole entry): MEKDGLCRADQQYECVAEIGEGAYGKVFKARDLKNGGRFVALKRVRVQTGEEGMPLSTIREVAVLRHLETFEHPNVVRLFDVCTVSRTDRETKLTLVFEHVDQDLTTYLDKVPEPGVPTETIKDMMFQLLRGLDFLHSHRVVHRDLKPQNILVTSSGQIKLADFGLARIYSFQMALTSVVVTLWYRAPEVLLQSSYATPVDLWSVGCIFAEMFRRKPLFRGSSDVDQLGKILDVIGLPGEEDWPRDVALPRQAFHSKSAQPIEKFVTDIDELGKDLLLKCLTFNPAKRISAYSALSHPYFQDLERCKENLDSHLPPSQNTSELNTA
Sequence of CDK6/CycD3 (P30281 whole entry partner): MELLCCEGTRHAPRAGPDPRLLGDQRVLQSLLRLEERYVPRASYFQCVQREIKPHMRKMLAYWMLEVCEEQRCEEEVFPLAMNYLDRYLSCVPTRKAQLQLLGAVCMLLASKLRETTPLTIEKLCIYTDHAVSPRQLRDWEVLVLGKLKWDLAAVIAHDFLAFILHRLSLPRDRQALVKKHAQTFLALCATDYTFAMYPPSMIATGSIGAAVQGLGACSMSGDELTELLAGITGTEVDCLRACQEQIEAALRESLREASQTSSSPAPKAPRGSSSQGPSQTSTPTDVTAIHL

CDK4/CycD3 = CDK4/CycD3 (Homo sapiens, UniProt P11802); test: Biochemical assay at ProQinase, CDK4/CycD3
Sequence of CDK4/CycD3 (P11802 whole entry): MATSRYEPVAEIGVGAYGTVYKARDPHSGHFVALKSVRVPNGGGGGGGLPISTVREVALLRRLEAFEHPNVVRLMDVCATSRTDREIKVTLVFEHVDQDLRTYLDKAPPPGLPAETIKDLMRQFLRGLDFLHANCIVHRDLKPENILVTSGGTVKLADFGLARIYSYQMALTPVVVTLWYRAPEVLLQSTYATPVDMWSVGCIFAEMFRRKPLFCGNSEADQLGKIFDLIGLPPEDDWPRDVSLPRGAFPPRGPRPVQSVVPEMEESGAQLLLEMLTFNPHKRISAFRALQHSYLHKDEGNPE
Sequence of CDK4/CycD3 (P30281 whole entry partner): as the sequence (P30281 whole entry partner) above

[4] = target: T1, wild‐type estrogen receptor 1 (ESR1) (Homo sapiens, UniProt P03372); test: Wild‐type estrogen receptor 1; type: cell-based
T1 sequence (P03372 1-595): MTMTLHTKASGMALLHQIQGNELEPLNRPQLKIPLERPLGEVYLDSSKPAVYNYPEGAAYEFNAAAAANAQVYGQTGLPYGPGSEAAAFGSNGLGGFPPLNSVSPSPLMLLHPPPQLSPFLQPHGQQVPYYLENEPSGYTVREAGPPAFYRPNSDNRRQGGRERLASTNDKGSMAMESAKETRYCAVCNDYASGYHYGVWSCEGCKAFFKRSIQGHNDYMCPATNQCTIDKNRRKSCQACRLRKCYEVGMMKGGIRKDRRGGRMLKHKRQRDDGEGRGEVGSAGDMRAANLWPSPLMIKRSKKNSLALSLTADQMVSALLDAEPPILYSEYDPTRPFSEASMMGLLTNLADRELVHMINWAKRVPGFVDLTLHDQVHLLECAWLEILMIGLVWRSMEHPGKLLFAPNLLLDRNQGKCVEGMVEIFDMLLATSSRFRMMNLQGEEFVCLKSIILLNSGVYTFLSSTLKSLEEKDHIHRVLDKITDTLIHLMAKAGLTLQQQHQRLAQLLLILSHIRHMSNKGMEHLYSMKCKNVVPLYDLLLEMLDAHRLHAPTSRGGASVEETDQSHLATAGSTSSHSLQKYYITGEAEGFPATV

MCF7 cells = test: In vitro proliferation assay, human MCF7 cells stimulated with 17β‐estradiol; type: cell-based; conditions: MCF7, read-out: IC50 MCF7 E2 stim.
[5] = estimated; cited from earlier work

SMILES: O=C(NC1CCNCC1)c1n[nH]cc1NC(=O)c1c(Cl)cccc1Cl [AT7519, reference compound]
- CLb hLMs [1]: 0.24 L/h/kg
- CLb rHep (rat hepatocytes): 1.7 L/h/kg
- chromatographic logD [2]: 1.3
- IC50 (A2780 cells): 0.131 µM
- P app A→B (Caco2): 1.0 nm/s

SMILES: N=S1(=O)CCC(NC(=O)c2n[nH]cc2NC(=O)c2c(Cl)cccc2Cl)CC1 (stereo not drawn) [compound 15, 4‐(2,6‐Dichlorobenzamido)‐N‐(1‐imino‐1‐oxo‐1λ^6‐thian‐4‐yl)‐1H‐pyrazole‐3‐carboxamide]
- IC50 (CDK9): 0.124 µM
- CLb hLMs [1]: 0.06 L/h/kg
- CLb rHep (rat hepatocytes): 0.06 L/h/kg
- chromatographic logD [2]: 1.6
- IC50 (A2780 cells): 0.351 µM
- P app A→B (Caco2): 1.4 nm/s
- efflux ratio at 90 min ([3]; Caco-2): 37
- IC50 (CDK2): 0.522 µM

SMILES: CC(=O)c1c(C)c2cnc(Nc3ccc(N4CCS(=N)(=O)CC4)cn3)nc2n(C2CCCC2)c1=O [compound 23, 4‐[6‐({6‐Acetyl‐8‐cyclopentyl‐5‐methyl‐7‐oxo‐7 H,8H‐pyrido[2,3‐d]pyrimidin‐2‐yl}amino)pyridin‐3‐yl]‐1‐imino‐1λ^6‐thiomorpholin‐1‐one]
- IC50 (MOLM‐13 cells): 0.128 µM
- IC50 (CDK6/CycD3): 0.24 µM
- CLb hLMs [1]: 0.24 L/h/kg
- CLb rHep (rat hepatocytes): 1.1 L/h/kg
- IC50 (CDK4/CycD3): 0.101 µM
- chromatographic logD [2]: 2
- P app A→B (Caco2): 25 nm/s
- efflux ratio at 90 min ([3]; Caco-2): 9.1

SMILES: CN(C)C(=O)c1cc2cnc(Nc3ccc(N4CCS(=N)(=O)CC4)cn3)nc2n1C1CCCC1 [compound 26, 7‐Cyclopentyl‐2‐{[5‐(1‐imino‐1‐oxo‐1λ^6‐thiomorpholin‐4‐yl)pyridin‐2‐yl]amino}‐N,N ‐dimethyl‐7H‐pyrrolo[2,3‐d]pyrimidine‐6‐carboxamide]
- IC50 (MOLM‐13 cells): 1.15 µM
- IC50 (CDK6/CycD3): > 1 µM
- CLb hLMs [1]: 0.21 L/h/kg
- CLb rHep (rat hepatocytes): 1.1 L/h/kg
- IC50 (CDK4/CycD3): 0.216 µM
- chromatographic logD [2]: 1.8
- P app A→B (Caco2): 22 nm/s
- efflux ratio at 90 min ([3]; Caco-2): 11

SMILES: CCCc1nc(C)c2c(=O)[nH]c(-c3cc(S(=O)(=O)N4CCS(=N)(=O)CC4)ccc3OCC)nn12 [compound 29, 4‐(4‐Ethoxy‐3‐{5‐methyl‐4‐oxo‐7‐propyl‐3 H,4H‐imidazo[4,3‐f][1,2,4]triazin‐2‐yl}benzenesulfonyl)‐1‐imino‐1λ^6‐thiomorpholin‐1‐one]
- CLb hLMs [1]: 0.43 L/h/kg
- CLb rHep (rat hepatocytes): 2.1 L/h/kg
- chromatographic logD [2]: 2
- ER (Caco2; Caco2 efflux ratio, P app B→A/P app A→B): 288
- efflux ratio at 90 min ([3]; Caco-2, ER, Caco2 efflux ratio, P app B→A/P app A→B): > 200

SMILES: C[C@]12CC[C@@H]3c4ccc(O)cc4C[C@@H](CCCCCCCCC[S@](=N)(=O)CCCC(F)(F)C(F)(F)F)[C@H]3[C@@H]1CC[C@@H]2O [compound 33, 7α‐{9‐[(S)‐(4,4,5,5,5‐Pentafluoropentyl)sulfonimidoyl]nonyl}estra‐1,3,5(10)‐triene‐3,17β‐diol]
- CLb hLMs [1]: 1.1 L/h/kg
- IC50 [4]: 0.0018 µM
- IC50 (MCF7 cells): 0.0071 µM
- CLb rHep (rat hepatocytes): 3.5 L/h/kg
- chromatographic logD [2]: 3.8
- permeability in either direction (P app A→B and P app B→A) (Caco2): no permeability in either direction

SMILES: C[C@]12CC[C@@H]3c4ccc(O)cc4C[C@@H](CCCCCCCCC[S+]([O-])CCCC(F)(F)C(F)(F)F)[C@H]3[C@@H]1CC[C@@H]2O (stereo partly drawn) [fulvestrant, reference compound]
- aqueous solubility [5]: ~0.01 µg/mL (≈ 0.0165 µM)
- CLb hLMs [1]: 1.2 L/h/kg
- IC50 (MCF7 cells): 0.0092 µM
- CLb rHep (rat hepatocytes): 3.5 L/h/kg
- chromatographic logD [2]: 4.2
- permeability in either direction (P app A→B and P app B→A) (Caco2): no permeability in either direction

SMILES: CC(=O)c1c(C)c2cnc(Nc3ccc(N4CCNCC4)cn3)nc2n(C2CCCC2)c1=O [palbociclib, reference compound]
- IC50 (MOLM‐13 cells): 0.041 µM
- CLb hLMs [1]: 0.45 L/h/kg
- CLb rHep (rat hepatocytes): 1.3 L/h/kg
- chromatographic logD [2]: 1.9
- P app A→B (Caco2): 70 nm/s

SMILES: CN(C)C(=O)c1cc2cnc(Nc3ccc(N4CCNCC4)cn3)nc2n1C1CCCC1 [ribociclib, reference compound]
- IC50 (MOLM‐13 cells): 0.089 µM
- CLb hLMs [1]: 0.52 L/h/kg
- CLb rHep (rat hepatocytes): 2.3 L/h/kg
- chromatographic logD [2]: 1.7
- P app A→B (Caco2): 135 nm/s

SMILES: CCCc1nc(C)c2c(=O)[nH]c(-c3cc(S(=O)(=O)N4CCN(CC)CC4)ccc3OCC)nn12 [vardenafil, reference compound]
- CLb hLMs [1]: 1.1 L/h/kg
- CLb rHep (rat hepatocytes): 3.0 L/h/kg
- chromatographic logD [2]: 2.6
- P app A→B (Caco2): 206 nm/s
